In patent US10952999B2, “Inhibitor of cyclin-dependent kinase CDK9” (GENFLEET THERAPEUTICS (SHANGHAI) INC., priority 2017, dated 2021):

Legend:
hamster lung cell CHL = assay: Cancer cell growth, Cell Titer-Glo cell viability assay, 72 hours; assay type: cell-based; conditions: for inhibitory effect on normal cell CHL (in words): CHL cells; for GI50: CHL, 72 hours
Excerpt: (§1) In the examples, we used acute myelocytic leukemia (AML) OCI-AML-3, acute promyelocytic leukemia cell line NB-4, MDS-RAEB (myelodysplastic syndrome-excess blasts type) cell line SKM-1, human leukemia cell Nomo-1, acute myeloid leukemia cell line MOLM14, acute myeloid leukemia cell line MOLM13, acute myeloid leukemia cell line MV4-11, acute myeloid leukemia cell line HL-60, acute myeloid leukemia cell line OCI-AML-2, histiocytic lymphoma U-937, acute B cell leukemia cell line MEC-1, acute B cell leukemia cell line MEC-2, acute megakaryoblastic leukemia CMK, hamster lung cell CHL, hamster ovary cell CHO, human non-small cell lung cancer cell H1975, human non-small cell lung cancer cell H358, human small cell lung cancer cell H209, human lung adenocarcinoma cell H1395, human non-small cell lung cancer cell PC-9, human lung cancer cell H3122, human non-small cell lung cancer cell H2122, human non-small cell lung cancer cell H1915, human lung adenocarcinoma cell H1355, human non-small cell lung cancer cell HCC827, human breast cancer cell MDA-MB-231, human breast cancer cell MDA-MB-468, human breast cancer cell MCF-7, human breast cancer cell T47D, human breast cancer cell SK-Br-3, the above cells were purchased from ATCC.
(§2) Cell Titer-Glo® (Promega, USA) chemical self-luminescence cell viability assay kit was used to detect the number of viable cells by quantitatively measuring ATP in living cells, according to which to calculate GI50 and IC50.

hamster ovary cell CHO = assay: as above; assay type: cell-based; conditions: for inhibitory effect on normal cell CHO (in words): CHO cells; for GI50: CHO, 72 hours
Excerpt: as §1, §2

[1] = test system: acute myeloid leukemia cell line MV4-11; assay: as above; assay type: cell-based; conditions: MV4-11, 72 hours
Excerpt: as §1, §2

[2] = test system: acute myeloid leukemia cell line MOLM14; assay: as above; assay type: cell-based; conditions: MOLM-14, 72 hours
Excerpt: as §1, §2

[3] = test system: acute myeloid leukemia cell line MOLM13; assay: as above; assay type: cell-based; conditions: MOLM-13, 72 hours
Excerpt: as §1, §2

[4] = test system: acute myeloid leukemia cell line HL-60; assay: as above; assay type: cell-based; conditions: HL-60, 72 hours
Excerpt: as §1, §2

[5] = test system: acute promyelocytic leukemia cell line NB-4; assay: as above; assay type: cell-based; conditions: NB4, 72 hours
Excerpt: as §1, §2

[6] = test system: acute myelocytic leukemia (AML) OCI-AML-3; assay: as above; assay type: cell-based; conditions: OCI-AML3, 72 hours
Excerpt: as §1, §2

[7] = test system: acute megakaryoblastic leukemia CMK; assay: as above; assay type: cell-based
Excerpt: as §1, §2

[8] = test system: histiocytic lymphoma U-937; assay: as above; assay type: cell-based; conditions: U-937, 72 hours
Excerpt: as §1, §2

[9] = test system: human leukemia cell Nomo-1; assay: as above; assay type: cell-based; conditions: Nomo-1, 72 hours
Excerpt: as §1, §2

[10] = test system: acute myeloid leukemia cell line OCI-AML-2; assay: as above; assay type: cell-based; conditions: OCI-AML2, 72 hours
Excerpt: as §1, §2

[11] = test system: acute B cell leukemia cell line MEC-1; assay: as above; assay type: cell-based; conditions: MEC-1, 72 hours
Excerpt: as §1, §2

[12] = test system: acute B cell leukemia cell line MEC-2; assay: as above; assay type: cell-based; conditions: MEC-2, 72 hours
Excerpt: as §1, §2

[13] = test system: MDS-RAEB (myelodysplastic syndrome-excess blasts type) cell line SKM-1; assay: as above; assay type: cell-based; conditions: SKM-1, 72 hours
Excerpt: as §1, §2

CDK9/cyclin T1 = target: T1, CDK9/cyclin T1 (Homo sapiens, UniProt P50750); assay: Enzyme assay for inhibition of CDK protein in vitro (Z-LYTE); assay type: biochemical
T1 construct: purchased Invitrogen, USA
Experimental: (§3) Compounds 1 and 14 diluted in DMSO were mixed with detected CDK protein (Invitrogen, USA) respectively, incubated at room temperature for 30 minutes; and then mixed with Kinase/Z-LYTE™ Peptide Substrate Mixture (Invitrogen, USA) and 4×ATP. The mixed system was transferred to a 384-well white opaque plate to react for 1 hour at room temperature; 5 μL of Development Solution (Invitrogen, USA) was added to react at room temperature for 1 hour, and finally Stop Reagent (Invitrogen, USA) was added to terminate the reaction and MD SpectraMax I3× microplate reader (Molecular Devices, USA) was used to read fluorescence values.

CDK8/cyclin C = target: T2, CDK8/cyclin C (Homo sapiens, UniProt P49336); assay: as above; assay type: biochemical
T2 construct: purchased Invitrogen, USA
Experimental: as §3

CDK3/cyclin E1 = target: T3, CDK3/cyclin E1 (Homo sapiens, UniProt Q00526); assay: as above; assay type: biochemical
T3 construct: purchased Invitrogen, USA
Experimental: as §3

CDK11(non-active) = target: T4, CDK11(non-active) (Homo sapiens, UniProt Q9BWU1); assay: as above; assay type: biochemical
T4 construct: purchased Invitrogen, USA
Experimental: as §3

[14] = test system: human non-small cell lung cancer cell H1975; assay: Cancer cell growth, Cell Titer-Glo cell viability assay, 72 hours; assay type: cell-based; conditions: NCI-H1975, H1975, 72 hours
Excerpt: as §1, §2

[15] = test system: human breast cancer cell MDA-MB-231; assay: as above; assay type: cell-based; conditions: MDA-MB-231, 72 hours
Excerpt: as §1, §2

[16] = test system: human small cell lung cancer cell H209; assay: as above; assay type: cell-based; conditions: NCI-H209, H209, 72 hours
Excerpt: as §1, §2

[17] = test system: human non-small cell lung cancer cell H1915; assay: as above; assay type: cell-based; conditions: NCI-H1915, H1915, 72 hours
Excerpt: as §1, §2

[18] = test system: human non-small cell lung cancer cell PC-9; assay: as above; assay type: cell-based; conditions: PC-9, 72 hours
Excerpt: as §1, §2

[19] = test system: human breast cancer cell T47D; assay: as above; assay type: cell-based
Excerpt: as §1, §2

[20] = test system: human lung adenocarcinoma cell H1395; assay: as above; assay type: cell-based; conditions: NCI-H1395, H1395, 72 hours
Excerpt: as §1, §2

[21] = test system: human lung cancer cell H3122; assay: as above; assay type: cell-based; conditions: NCI-H3122, H3122, 72 hours
Excerpt: as §1, §2

[22] = test system: human non-small cell lung cancer cell H358; assay: as above; assay type: cell-based; conditions: NCI-H358, H358, 72 hours
Excerpt: as §1, §2

[23] = test system: human breast cancer cell SK-Br-3; assay: as above; assay type: cell-based; conditions: SK-Br-3, 72 hours
Excerpt: as §1, §2

[24] = test system: human breast cancer cell MCF-7; assay: as above; assay type: cell-based; conditions: MCF7, MCF-7, 72 hours
Excerpt: as §1, §2

[25] = test system: human breast cancer cell MDA-MB-468; assay: as above; assay type: cell-based; conditions: MDA-MB-468, 72 hours
Excerpt: as §1, §2

[26] = test system: human lung adenocarcinoma cell H1355; assay: as above; assay type: cell-based; conditions: NCI-H1355, H1355, 72 hours
Excerpt: as §1, §2

[27] = test system: human non-small cell lung cancer cell H2122; assay: as above; assay type: cell-based; conditions: NCI-H2122, H2122, 72 hours
Excerpt: as §1, §2

[28] = test system: human non-small cell lung cancer cell HCC827; assay: as above; assay type: cell-based; conditions: HCC827, 72 hours
Excerpt: as §1, §2

T2 sequence (P49336 whole entry): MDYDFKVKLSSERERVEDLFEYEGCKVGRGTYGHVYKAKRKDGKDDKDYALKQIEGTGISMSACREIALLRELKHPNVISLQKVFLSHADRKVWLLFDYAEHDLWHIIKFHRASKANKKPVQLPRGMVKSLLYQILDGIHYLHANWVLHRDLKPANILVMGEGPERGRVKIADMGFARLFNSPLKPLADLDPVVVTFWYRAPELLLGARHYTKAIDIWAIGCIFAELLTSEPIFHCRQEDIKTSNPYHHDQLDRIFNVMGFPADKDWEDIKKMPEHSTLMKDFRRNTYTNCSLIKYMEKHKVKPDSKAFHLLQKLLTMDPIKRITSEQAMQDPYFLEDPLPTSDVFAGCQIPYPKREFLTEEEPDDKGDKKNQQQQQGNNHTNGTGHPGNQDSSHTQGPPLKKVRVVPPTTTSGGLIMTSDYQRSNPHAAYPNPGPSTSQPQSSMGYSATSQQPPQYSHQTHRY
T2 sequence (P24863 whole entry partner): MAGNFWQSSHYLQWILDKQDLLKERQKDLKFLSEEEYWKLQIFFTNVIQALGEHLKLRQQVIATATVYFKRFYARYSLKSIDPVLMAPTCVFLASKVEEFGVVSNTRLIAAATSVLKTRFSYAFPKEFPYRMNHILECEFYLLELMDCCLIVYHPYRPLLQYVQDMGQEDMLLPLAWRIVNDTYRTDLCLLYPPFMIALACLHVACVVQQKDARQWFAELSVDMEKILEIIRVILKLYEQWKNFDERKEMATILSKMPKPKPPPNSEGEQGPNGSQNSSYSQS
T3 sequence (Q00526 whole entry): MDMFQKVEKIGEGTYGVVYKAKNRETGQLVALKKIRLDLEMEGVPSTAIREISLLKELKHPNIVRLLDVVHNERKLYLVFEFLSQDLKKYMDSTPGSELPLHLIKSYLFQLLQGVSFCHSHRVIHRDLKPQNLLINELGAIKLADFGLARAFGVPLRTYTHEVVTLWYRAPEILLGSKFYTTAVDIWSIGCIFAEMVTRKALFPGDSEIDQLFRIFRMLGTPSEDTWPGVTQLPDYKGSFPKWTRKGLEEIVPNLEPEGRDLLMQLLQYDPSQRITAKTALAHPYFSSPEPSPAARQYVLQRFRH
T3 sequence (P24864 whole entry partner): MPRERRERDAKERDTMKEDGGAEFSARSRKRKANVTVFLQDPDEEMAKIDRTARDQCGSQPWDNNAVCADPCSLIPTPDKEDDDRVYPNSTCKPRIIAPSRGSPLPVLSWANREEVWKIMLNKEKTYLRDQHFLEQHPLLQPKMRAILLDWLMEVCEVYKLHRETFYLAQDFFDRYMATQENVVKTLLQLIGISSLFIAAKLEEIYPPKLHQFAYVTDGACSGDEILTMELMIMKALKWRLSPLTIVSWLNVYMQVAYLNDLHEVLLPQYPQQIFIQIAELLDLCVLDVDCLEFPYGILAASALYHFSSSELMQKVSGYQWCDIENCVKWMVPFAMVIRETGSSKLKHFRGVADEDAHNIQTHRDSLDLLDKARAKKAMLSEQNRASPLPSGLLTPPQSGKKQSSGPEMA
T4 sequence (Q9BWU1 whole entry): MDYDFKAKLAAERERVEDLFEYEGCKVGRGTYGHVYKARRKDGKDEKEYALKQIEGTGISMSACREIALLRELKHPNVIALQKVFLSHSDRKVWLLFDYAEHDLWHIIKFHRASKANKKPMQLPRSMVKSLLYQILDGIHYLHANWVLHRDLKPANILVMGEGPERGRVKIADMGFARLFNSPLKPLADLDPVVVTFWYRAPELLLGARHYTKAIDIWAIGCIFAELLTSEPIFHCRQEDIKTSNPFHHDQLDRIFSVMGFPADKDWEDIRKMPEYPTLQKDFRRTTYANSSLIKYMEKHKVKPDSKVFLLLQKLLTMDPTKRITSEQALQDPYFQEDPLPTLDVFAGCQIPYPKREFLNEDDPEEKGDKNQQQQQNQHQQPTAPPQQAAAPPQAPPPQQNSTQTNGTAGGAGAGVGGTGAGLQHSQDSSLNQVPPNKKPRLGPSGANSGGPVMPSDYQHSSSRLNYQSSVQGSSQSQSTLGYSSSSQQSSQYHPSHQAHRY
T1 sequence (P50750 whole entry): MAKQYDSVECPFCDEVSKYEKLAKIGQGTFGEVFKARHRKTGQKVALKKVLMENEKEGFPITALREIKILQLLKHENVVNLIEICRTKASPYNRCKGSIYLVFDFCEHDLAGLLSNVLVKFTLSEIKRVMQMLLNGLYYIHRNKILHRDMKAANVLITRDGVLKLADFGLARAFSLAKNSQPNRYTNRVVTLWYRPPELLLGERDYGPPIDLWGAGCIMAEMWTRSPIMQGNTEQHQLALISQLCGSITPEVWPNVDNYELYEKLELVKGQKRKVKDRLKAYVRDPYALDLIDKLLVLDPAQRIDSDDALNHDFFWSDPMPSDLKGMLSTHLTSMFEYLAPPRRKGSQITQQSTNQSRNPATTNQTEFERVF
T1 sequence (O60563 whole entry partner): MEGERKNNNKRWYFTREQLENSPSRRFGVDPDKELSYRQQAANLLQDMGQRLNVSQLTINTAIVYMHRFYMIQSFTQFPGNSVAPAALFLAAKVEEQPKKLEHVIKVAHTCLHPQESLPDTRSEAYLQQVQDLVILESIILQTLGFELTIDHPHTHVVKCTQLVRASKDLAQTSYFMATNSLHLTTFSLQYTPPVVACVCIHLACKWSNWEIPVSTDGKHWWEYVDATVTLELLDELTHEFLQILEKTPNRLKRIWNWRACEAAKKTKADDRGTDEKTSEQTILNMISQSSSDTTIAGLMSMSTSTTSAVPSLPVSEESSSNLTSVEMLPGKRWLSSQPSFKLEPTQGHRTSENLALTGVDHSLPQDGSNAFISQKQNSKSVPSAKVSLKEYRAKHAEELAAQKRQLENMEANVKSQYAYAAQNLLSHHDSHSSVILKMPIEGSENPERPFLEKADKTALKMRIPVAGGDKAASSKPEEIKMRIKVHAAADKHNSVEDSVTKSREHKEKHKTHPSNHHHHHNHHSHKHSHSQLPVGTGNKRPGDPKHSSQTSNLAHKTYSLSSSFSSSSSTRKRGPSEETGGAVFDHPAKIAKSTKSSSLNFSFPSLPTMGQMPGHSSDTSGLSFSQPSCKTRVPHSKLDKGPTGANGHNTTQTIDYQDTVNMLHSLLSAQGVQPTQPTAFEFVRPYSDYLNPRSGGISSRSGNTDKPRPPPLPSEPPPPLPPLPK

GI50 (hamster lung cell CHL) [nM]	GI50 ([1]; Homo sapiens) [nM]	GI50 ([2]; Homo sapiens) [nM]	GI50 ([3]; Homo sapiens) [nM]	GI50 ([4]; Homo sapiens) [nM]	GI50 [5] [nM]	GI50 ([6]; Homo sapiens, OCI-AML-3) [nM]	GI50 [7] [nM]	GI50 ([8]; Homo sapiens) [nM]	GI50 ([9]; Homo sapiens) [nM]	GI50 ([10]; Homo sapiens) [nM]	GI50 ([11]; Homo sapiens, MEC1) [nM]	GI50 ([12]; MEC2) [nM]	GI50 ([13]; Homo sapiens) [nM]	SMILES	inhibitory effect on normal cell CHL (in words) (hamster lung cell CHL)	inhibitory effect on normal cell CHO (in words) (hamster ovary cell CHO)	GI50 (hamster ovary cell CHO) [nM]	further results
1200	41	1.1	12	56	7.9	12	36	11	110	6.6	37	23	2	COCCN[C@H]1CC[C@H](Nc2cc(-c3csc(NCC4(C#N)CCOCC4)n3)c(Cl)cn2)CC1 [Compound 14, 4-((4-(5-chloro-2-(((1r,4r)-4-((2-methoxyethyl)amino)cyclohexyl)amino)pyridin-4-yl)thiazol-2-ylamino)methyl)tetrahydro-2H-pyran-4-carbonitrile]	no inhibitory effect	no inhibitory effect	1100	IC50 (CDK9/cyclin T1): 1.27 nM; IC50 (CDK8/cyclin C): > 10000 nM; IC50 (CDK3/cyclin E1): > 10000 nM; IC50 (CDK11(non-active)): > 10000 nM
1200	910	1200	1200	980	1300	2100	4000	1100	3000	1100	2500	1700	1100	COCCN[C@H]1CC[C@H](Nc2cc(-c3csc(NCC4CCOCC4)n3)ccn2)CC1 [Compound 18, (1r,4r)-N^1-(2-methoxyethyl)-N^4-(4-(2-(((tetrahydro-2H-pyran-4-yl)methyl)amino)thiazol-4-yl)pyridin-2-yl)cyclohexane-1,4-diamine]	–	–	4100	–
180	7.6	4.5	3.3	8	10	11	9.9	3.6	34	13	11	10	10	CCc1cnn2c(NCc3ccc[n+]([O-])c3)cc(N3CCCC[C@H]3CCO)nc12 [Dinaciclib, reference compound]	–	–	160	–
200	–	–	–	–	32	–	42	–	–	–	–	–	–	NC1CCC(Nc2cc(-c3cccc(NCc4cccc(F)c4)n3)c(Cl)cn2)CC1 (centres unmarked) [HY-16462, reference compound]	certain inhibitory effects	certain inhibitory effects	290	GI50 [1]: 27 nM; GI50 [2]: 33 nM; GI50 [3]: 32 nM; GI50 [4]: 37 nM; GI50 [6]: 47 nM; GI50 [8]: 31 nM; GI50 [9]: 63 nM; GI50 [10]: 71 nM; GI50 [11]: 48 nM; GI50 [12]: 36 nM; GI50 [13]: 40 nM
–	–	–	–	–	–	–	–	–	–	–	–	–	–	CC(=O)c1c(C)c2cnc(Nc3ccc(N4CCNCC4)cn3)nc2n(C2CCCC2)c1=O [Palbociclib, reference compound]	–	–	–	IC50 [14]: > 10000 nM; IC50 [15]: 5100 nM; IC50 [16]: > 10000 nM; IC50 [17]: 3600 nM; IC50 [18]: > 10000 nM; IC50 [19]: 4100 nM; IC50 [20]: > 10000 nM; IC50 [21]: 1200 nM; IC50 [22]: 6600 nM; IC50 [23]: 3200 nM; IC50 [24]: 1700 nM; IC50 [25]: 2700 nM; IC50 [26]: ~10000 nM; IC50 [27]: 1600 nM; IC50 [28]: > 10000 nM
